Results from US4033721A, “Analysis of gentian violet residue in tissue” (priority 1976, dated 1977).
“And” between values parts separate entries of the source, which are not always exact repeats. Identical values can stand only once. Like-named read-outs stand apart in the source and are kept apart here.

What was measured:
normal coliform bacteria = conditions: intestinal tract; cited from earlier work
[1] = water, chloroform and ethanol; cited from earlier work
[2] = Spectrophotometric determination of gentian violet residue in livers of chickens fed gentian violet (Examples 2 to 24); format: in vivo
Description: This example involves the spectrophotometrical determination of the gentian violet content (as a residue) of poultry tissue.
An acid alcohol solution was prepared by adding 20 ml of concentrated hydrochloric acid to 2,000 ml of 95 percent ethyl alcohol (denatured).
A gentian violet stock solution was prepared as follows: Using the Ainsworth chainomatic analytical balance, 0.104 gm of crystalline gentian violet (USP) was accurately weighed out and quantitatively transferred to a 1000 ml volumetric flask and q.s. to 1000 ml with distilled water. A magnetic stirring bar was inserted into the flask and the gentian violet solution was mixed on a magnetic mixer for 1 hour. This solution contained 100 ug of gentian violet per ml (100 ppm).
Gentian violet-acid alcohol standard solutions were prepared as follows: Five standard dilutions of gentian violet in acid alcohol were prepared and the absorbence (O.D.) for each dilution was determined. The absorbence of the 5 dilutions were plotted on a graph to determine the linearity of the gentian violet curve.
The spectrophotometer was set at 590 mμ and zeroed using an acid alcohol blank. The absorbence of the 5 standard dilutions in the 13 mm cuvette was determined. The O.D. of the 1 ppm dilution in the 13 mm cuvette was recorded for use in calculation of the gentian violet recovery. (If method sensitivity below 0.1 ppm is desired, the O.D. of the 1 ppm standard in the 100 mm cell is recorded and the Beckman D.U. is used to make the determinations.)
A sodium hypochlorite quenching solution was prepared as follows: 0.26 gm. of sodium hypochlorite was weighed into a 250 ml Erlenmeyer flask and q.s. to 100 ml with distilled water. This solution was 0.26 percent NaOCL. If sodium hypochlorite is not available in the laboratory, this solution can be made from any standard household bleaching solution containing sodium hypochlorite (i.e., Clorox) at the 5.25 percent concentration. 1 ml 5.25 percent NaOCL q.s. to 20 ml with distilled water to give 20 ml of 0.26 percent NaOCL.
The tissue samples were prepared by grinding the tissues in a Waring-type blender to reduce the tissues to the smallest particle size possible. Using a Mettler P162-type balance, 5 gm samples of the finely ground tissues were weighed (in triplicate) into Erlenmeyer flasks.
Gentian violet was extracted from tissue samples as follows: 50 ml of acid-alcohol were added (using a graduated glass cylinder) to each of the samples in the flasks. A 3/4" magnetic stirring bar was inserted into each sample. The flasks were stoppered. The samples were placed on the magnetic mixers and mixed for 1 hour. After mixing, the samples were set in the dark to digest for 12 hours (overnight). After 12 hours of digestion the samples were again placed on the magnetic mixer and mixed for 1 hour. The contents of the sample flasks were poured into 60 ml glass centrifuge tubes and centrifuged at 2400 rpm for 10 minutes.
Chromatographic column clearing of the centrifuged samples was achieved as follows: Each column was equipped with a glass stop-cock, if the column was not so equipped. A small glass-wool pledget was inserted firmly in the bottom of the column to fill the bottom curve of the column. 5 to 6 grams of the Alumin AR sorbent was added to each column. The supernatant liquid was carefully decanted from the centrifuge tube into the chromatographic column. A 50 ml beaker was placed under each column. The stop-cock was opened and the first eluant from the column was collected until a minimum of 20 ml was collected. (This first eluant ordinarily was yellow in color but contained the extracted gentian violet.)
Spectrophotometric determination of the gentian violet concentration from the tissue sample was determined as follows: 5 ml of each of the eluants was pipetted into the 13 mm cuvettes. The spectrophotometer was set at 590 mu. The spectrophotometer was zeroed using an acid alcohol blank in the 13 mm cuvette. It was established that all cuvettes were matched. […]

[3] = cited from earlier work
[4] = cited from earlier work; remark: listed apart in the source
[5] = cited from earlier work; remark: listed apart in the source
[6] = Residual 14C-gentian violet in tissues of cockerels after repeated oral administration (Example 26)
[7] = Stability of gentian violet (light, acid, digestive tract pH); format: physicochemical
Candida albicans = conditions: cited from earlier work
[8] = cited from earlier work; remark: listed apart in the source
[9] = 4 hours after last administration

## CN(C)c1ccc(C(=C2C=CC(=[N+](C)C)C=C2)c2ccc(N(C)C)cc2)cc1 [gentian violet, hexamethylpararosaniline chloride]
Normal coliform bacteria
  effect on growth and activity of normal coliform bacteria: without materially reducing the growth of and activity of the normal coliform bacteria
[1]
  solubility: soluble in water, chloroform and ethanol
[2]; chicken liver
  gentian violet residue with time after last intake of feed: lower with time
[2]; chicken liver, feed 7 ppm for 56 days, 4 hours after final dose, 240 min
  p.p.m. of Gentian Violet in liver: 0.28 p.p.m.
[2]; chicken liver, feed 7 ppm for 56 days, 24 hours after final dose, 1440 min
  p.p.m. of Gentian Violet in liver: 0.20 p.p.m.
[2]; chicken liver, feed 7 ppm for 56 days, 48 hours after final dose, 2880 min
  p.p.m. of Gentian Violet in liver: 0.08 p.p.m. and 0.16 p.p.m.
[2]; chicken liver, feed 35 ppm for 56 days, 12 hours after final dose
  p.p.m. of Gentian Violet in liver: 0.44 p.p.m.
[2]; chicken liver, feed 35 ppm for 56 days, 24 hours after final dose, 1440 min
  p.p.m. of Gentian Violet in liver: 0.80 p.p.m. and 0.60 p.p.m.
[2]; chicken, liver, po, feed 7 ppm for 56 days, 4 hours after final dose, read-out: p.p.m. of Gentian Violet in liver
  concentration at 4 h: 240 ng/g
[2]; chicken, liver, po, feed 7 ppm for 56 days, 12 hours after final dose, read-out: p.p.m. of Gentian Violet in liver
  concentration at 12 h: 120 ng/g
[2]; chicken, liver, po, feed 7 ppm for 56 days, 48 hours after final dose, read-out: p.p.m. of Gentian Violet in liver
  concentration at 48 h: 80 ng/g
[2]; chicken, liver, po, feed 35 ppm for 56 days, 12 hours after final dose, read-out: p.p.m. of Gentian Violet in liver
  concentration at 12 h: 440 ng/g
[2]; chicken, liver, po, feed 35 ppm for 56 days, 24 hours after final dose, read-out: p.p.m. of Gentian Violet in liver
  concentration at 24 h: 640 ng/g
[2]; chicken, liver, po, feed 35 ppm for 56 days, 48 hours after final dose, read-out: p.p.m. of Gentian Violet in liver
  concentration at 48 h: 360 ng/g
[3]; feed containing gentian violet at the claimed levels
  growth on mycotoxin-contaminated feed: increased at a rate significantly faster
[3]; feed contaminated with aflatoxin
  growth promotion: works as a growth promoter
[3]; in vivo
  sparing effect versus aflatoxin concentration: appears to be a linear function of the concentration of the aflatoxin in the feed
[4]; contaminant in water and residue in poultry manure, ultra-violet rays of sunlight
  biodegradability: biodegradable
[4]; pH range of the digestive tract of animals and poultry
  stability in the digestive tract pH range: stable
[5]; digestive tract of animals and poultry
  absorption: essentially non-absorbable
[5]; in vivo
  residue in tissue of animals fed the compositions: little or no residue
[6]; [9]
  radioactivity in 5X kidneys relative to 1X kidneys: 4.7 times
  radioactivity in 5X livers relative to 1X livers: 2.7 times
[6]; in vivo
  concentration by the liver relative to the kidneys: about twice as much
[6]; livers and kidneys
  disappearance from one organ versus the other: does not disappear more rapidly from one organ than the other
[6]; livers and kidneys, 5X and 1X
  mean half-life in the two organs at dose levels: 32.2 h
[7]; acid ethanol extract, pH lowered by evaporation
  acid stability: the acid would destroy the extracted gentian violet
[7]; ultra violet rays of sunlight
  light stability: extremely sensitive to decomposition
Candida albicans
  effect on Candida albicans: inhibits the growth of and destroys Candida albicans
[8]; in vivo
  toxic effects in poultry: can kill the poultry or cause a decrease in the weight gain of the poultry
[8]; levels given in U.S. Pat. No. 3,916,027
  toxicity of residue levels to the consuming animal or poultry: not toxic or harmful
